Antibacterial efficacy and cell migration data for 3 compounds are collected here from US20260053836A1, “CHRONIC WOUND HEALING COMPOSITION AND APPLICATION THEREOF” (priority 2019, published 2026).

One experiment has as its system Staphylococcus aureus. The conditions noted are these: Guillermo et al., 1999; cited from earlier work.
In a further experiment the test system is HaCaT cells. Kind of experiment: Cell migration assay of HaCaT cells in high glucose culture. It counts as cell-based, human. The conditions noted are these: high glucose (25 mM), 48 hours, control group taken as 1. On the procedure: Human dermal fibroblasts (HDF cells) or human keratinocytes (HuCaT cells) were cultured in a humid incubator at 37° C. in an environment of 5% carbon dioxide and […] and placed in Dulbecco's modified Eagle's medium (DMEM) supplemented with glucose, 10% fetal bovine serum, 100 IU/mL penicillin, 100 μg/mL streptomycin, 2 mM sodium pyruvate and 1% nonessential amino acids (NEAA). The medium was changed every two days. For subculture, cells were harvested and re-cultured at a 1:10 dilution after exposure to 0.1% Trypsin-EDTA mixture. The cells used in the study ranged from 12 to 40 passages. 24 hours before drug treatment, cells were seeded and left for 24 hours. The control group was maintained in the medium and […]. Under this culture condition, cell growth and differentiation are not affected.
HaCaT cells were cultured at 1×10^5 with addition of 25 mM glucose in a 24-well culture dish for 48 hours, and the following drugs were added to observe the cell migration state: • Con: the control group; • BO 18.8 μM+A 16.0 μM; • BSG 14.2 μM+A 16.0 μM; • BO 18.8 μM+BSG 14.2 μM; • All: A 16.0 μM+BO 18.8 μM+BSG 14.2 μM.

As to `C[C@@H]1O[C@@H](O[C@@H]2[C@@H](O)[C@H](OCCc3ccc(O)c(O)c3)O[C@H](CO)[C@H]2OC(=O)/C=C/c2ccc(O)c(O)c2)[C@H](O)[C@H](O)[C@H]1O` [Acteosides, Acteoside], the antibacterial efficacy entry in the experiment on Staphylococcus aureus is listed as “good antibacterial efficacy”.

With `CC1(C)C2CCC1(C)C(O)C2` (stereo not drawn) [BO, Borneal], the cell migration result with HaCaT cells is given as “no promoting effect”.

Regarding `O=C(O)c1cc(O)c2c(c1)[O][Bi]([OH])[O]2` [BSG, Bismuth subgallate], the cell migration entry in the experiment on HaCaT cells is on record as “no promoting effect”.
